Results reported in patent US20250134861A1, “COMPOSITIONS COMPRISING 5-METHOXY-N,N-DIMETHYLTRYPTAMINE (5-MEO-DMT) FOR USE IN TREATING MENTAL DISORDERS” (GH RESEARCH IRELAND LIMITED, priority 2019, published 2025).

Columns and labels:
[1] = test system: respondents with self-reported psychiatric conditions; details: majority of respondents; ritual or recreational use; observational; cited from earlier work
healthy volunteers = test: Clinical trial of inhaled 5-MeO-DMT in healthy volunteers: safety and tolerability; type: in vivo, human
Experimental: The trial consisted of two parts: Part A, where single doses of 5-MeO-DMT dosage amounts of 2 mg, 6 mg, 12 mg and 18 mg were administered; and Part B, where an initial 5-MeO-DMT dosage amount of 6 mg was administered, and then, unless the participant had already experienced a peak psychedelic experience based on the PPEQ or the supervising physician had decided that further dose increases were inappropriate based on observed side effects, further subsequent dosage amounts of 12 mg and 18 mg were administered with about 3 hours in between each administration. […] Pharmacokinetic analysis of 5-MeO-DMT and bufotenine plasma levels was performed at 1 hour and 3 hours after drug administration in Part A, and at 3 hours after drug administration in Part B.
18 participants were recruited into Part A of the study and 4 participants were recruited into Part B. 9 Participants were female and 13 participants were male. Median age was 29 years (range: 19 to 42 years). In Part A, 4 participants received 2 mg, 6 participants received 6 mg, 4 participants received 12 mg and 4 participants received 18 mg of 5-MeO-DMT. In Part B, 1 participant received 6 mg, 2 participants received 6 mg and then 12 mg and one participant received 6 mg, 12 mg and then 18 mg of 5-MeO-DMT.

[2] = test system: patients with treatment-resistant major depressive disorder; test: Clinical trial of inhaled 5-MeO-DMT in TRD patients: safety and tolerability; type: in vivo, human
[3] = Part A, 2 mg single inhaled dose (n = 4), Administration day, possibly or probably related, mild
[4] = Part A, 6 mg single inhaled dose (n = 6), Administration day, possibly or probably related, mild
[5] = Part A, 6 mg single inhaled dose (n = 6), Day 1, possibly or probably related, mild
[6] = Part A, 18 mg single inhaled dose (n = 4), Administration day, possibly or probably related, mild
[7] = Part A, 18 mg single inhaled dose (n = 4), Day 1, possibly or probably related, mild
[8] = Part B, 12 mg (n = 3), after 6 mg, Administration day, possibly or probably related, mild
[9] = both patients, single 12 mg inhaled dose

**Q.** With COc1ccc2[nH]cc(CCN(C)C)c2c1 [5-MeO-DMT, 5-methoxy-N,N-dimethyltryptamine] as the compound, how does the “Self-perceived change of psychiatric symptoms (anxiety, depression, substance use problems, post-traumatic stress disorder)” value [1] read?
**A.** perceived improvements in symptoms

**Q.** And the “Evaluation of ECG, safety laboratory analyses, CADSS and cognitive tests (PVT, DSST, PMT)” value (healthy volunteers; Part A and Part B)?
**A.** unremarkable

**Q.** What about the “Severity and course of reported adverse events” value (healthy volunteers; Part A and Part B) of the same compound?
**A.** all mild (except for one moderate event) and all resolved spontaneously

**Q.** What about the Inhalation-related adverse events (healthy volunteers; Part A and Part B, 2 to 18 mg inhaled) of the same compound?
**A.** No inhalation-related adverse events

**Q.** And the “Adverse events reported: Nausea” value (healthy volunteers; [3])?
**A.** 2

**Q.** And the “Adverse events reported: Tachycardia” value (healthy volunteers; [3])?
**A.** 1

**Q.** What about the “Adverse events reported: Vision blurred” value (healthy volunteers; [3]) of the same compound?
**A.** 1

**Q.** What about the “Adverse events reported: Anxiety” value (healthy volunteers; [4]) of the same compound?
**A.** 1

**Q.** What about the “Adverse events reported: Headache” value (healthy volunteers; [4]) of the same compound?
**A.** 1

**Q.** And the “Adverse events reported: Nausea” value (healthy volunteers; [4])?
**A.** 1

**Q.** And the “Adverse events reported: Clumsiness” value (healthy volunteers; [5])?
**A.** 1

**Q.** And the “Adverse events reported: Feeling hot” value (healthy volunteers; [5])?
**A.** 1

**Q.** And the “Adverse events reported: Headache” value (healthy volunteers; [5])?
**A.** 1

**Q.** What about the “Adverse events reported: Anxiety” value (healthy volunteers; Part A, 12 mg single inhaled dose (n = 4), Administration day, possibly or probably related, mild) of the same compound?
**A.** 1

**Q.** What about the “Adverse events reported: Heart rate increased” value (healthy volunteers; Part A, 12 mg single inhaled dose (n = 4), Administration day, possibly or probably related, this event was moderate) of the same compound?
**A.** 1^1

**Q.** What about the “Adverse events reported: Headache” value (healthy volunteers; [6]) of the same compound?
**A.** 1

**Q.** What about the “Adverse events reported: Nausea” value (healthy volunteers; [6]) of the same compound?
**A.** 1

**Q.** And the “Adverse events reported: Abnormal dreams” value (healthy volunteers; [7])?
**A.** 1

**Q.** What about the “Adverse events reported: Fatigue” value (healthy volunteers; [7]) of the same compound?
**A.** 1

**Q.** And the “Adverse events reported: Hallucination” value (healthy volunteers; [7])?
**A.** 1

**Q.** What about the “Adverse events reported: Hyperacusis” value (healthy volunteers; [7]) of the same compound?
**A.** 1

**Q.** What about the “Adverse events reported: Insomnia” value (healthy volunteers; [7]) of the same compound?
**A.** 1

**Q.** What about the “Adverse events reported: Mental fatigue” value (healthy volunteers; [7]) of the same compound?
**A.** 1

**Q.** And the “Adverse events reported: Flashback” value (healthy volunteers; Part A, 18 mg single inhaled dose (n = 4), Day 7, possibly or probably related, mild)?
**A.** 1

**Q.** What about the “Adverse events reported: Nausea” value (healthy volunteers; Part B, 6 mg inhaled (n = 4), Administration day, possibly or probably related, mild) of the same compound?
**A.** 1

**Q.** What about the “Adverse events reported: Fatigue” value (healthy volunteers; [8]) of the same compound?
**A.** 1

**Q.** And the “Adverse events reported: Head discomfort” value (healthy volunteers; [8])?
**A.** 1

**Q.** What about the “Adverse events reported: Headache” value (healthy volunteers; [8]) of the same compound?
**A.** 1

**Q.** What about the “Adverse events reported: Nausea” value (healthy volunteers; [8]) of the same compound?
**A.** 1

**Q.** And the Adverse events reported (healthy volunteers; Part B, 18 mg (n = 1), after 12 mg and 6 mg, Administration day, Day 1 and Day 7)?
**A.** None reported

**Q.** What about the “Changes in vital parameters” value (healthy volunteers; shortly after administration, no other noteworthy changes) of the same compound?
**A.** temporary, not clinically relevant increase in heart rate and blood pressure

**Q.** What about the Reported adverse events ([2]; Patient 1, single 12 mg inhaled dose, Day 1) of the same compound?
**A.** Headache, Flashback

**Q.** What about the Reported adverse events ([2]; Patient 1, single 12 mg inhaled dose, Day 7) of the same compound?
**A.** Headache

**Q.** And the Reported adverse events ([2]; Patient 1, single 12 mg inhaled dose, administration day)?
**A.** Dizziness

**Q.** What about the Reported adverse events ([2]; Patient 2, single 12 mg inhaled dose, Day 1) of the same compound?
**A.** Headache

**Q.** What about the Reported adverse events ([2]; Patient 2, single 12 mg inhaled dose, Day 7) of the same compound?
**A.** None reported

**Q.** What about the Reported adverse events ([2]; Patient 2, single 12 mg inhaled dose, administration day) of the same compound?
**A.** None reported

**Q.** And the “Assessments of ECG, safety laboratory analyses, CADSS and cognitive tests (PVT, DSST)” value ([2]; both patients, ECG at 3 hours, laboratory at 3 hours and 7 days, CADSS at 3 hours, 1 day, 7 days, cognitive tests at 1 day and 7 days)?
**A.** unremarkable

**Q.** What about the “Changes in vital parameters” value ([2]; both patients, shortly after single 12 mg inhaled dose, no other noteworthy changes) of the same compound?
**A.** temporary, not clinically relevant increase in heart rate and blood pressure

**Q.** What about the “Severity and course of reported adverse events” value [2, 9] of the same compound?
**A.** mild, short-lasting and resolved spontaneously

**Q.** And the “Tolerability of the inhalation procedure” value [2, 9]?
**A.** well tolerated with no inhalation-related adverse events
